Results taken from patent US11759462B2, “Spirocyclic compounds as tryptophan hydroxylase inhibitors” (priority 2013, dated 2023).
pIC50: −log10 of the molar value. Where two headings read alike, the source gives them in different places.

Target: T1, Recombinant human TPH1 (MBP tagged) (Homo sapiens, UniProt P17752)
T1 construct: cloning full length human TPH1 cDNA in to a bacterial pMAL-c5E expression vector; made in house; host or cells: E. coli BL21 (DE3)
T1 sequence (P17752 1-444): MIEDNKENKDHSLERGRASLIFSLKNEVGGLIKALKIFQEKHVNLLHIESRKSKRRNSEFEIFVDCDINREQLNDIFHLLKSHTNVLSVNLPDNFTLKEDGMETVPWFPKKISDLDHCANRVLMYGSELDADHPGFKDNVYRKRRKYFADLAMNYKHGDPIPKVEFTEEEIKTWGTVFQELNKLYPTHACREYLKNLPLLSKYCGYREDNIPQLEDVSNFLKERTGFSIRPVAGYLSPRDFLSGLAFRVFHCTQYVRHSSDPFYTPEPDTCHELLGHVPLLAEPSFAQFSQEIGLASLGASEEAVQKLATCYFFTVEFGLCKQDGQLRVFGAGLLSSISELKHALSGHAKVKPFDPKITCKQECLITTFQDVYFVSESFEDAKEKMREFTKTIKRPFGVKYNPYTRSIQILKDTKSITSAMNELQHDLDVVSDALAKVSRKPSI
Experiment: TPH1 in vitro inhibition assay (kinetic fluorescence)
Assay type: biochemical
Method in brief: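 Final mix: 15 nM MBP-TPH1, 30 μM Trp, 36 μM 6-methyltetrahydropterin, 25 μM ferrous ammonium sulfate, 50 mM MES pH 7.1, 1% DMSO, room temperature.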

[1] = read-out: TPH1 Range (TPH1 inhibition IC50)
[2] = TPH1 Range (TPH1 inhibition IC50)

Row | pIC50 [1] | pIC50 [2] | Compound
1 | > 7.30 | – | Cc1ccn(-c2ccc(-c3cccc(CCC(=O)O)c3)cc2[C@@H](Oc2cc(N3CCC4(CC3)CN[C@H](C(=O)O)C4)nc(N)n2)C(F)(F)F)n1 [Example 19j, (S)-8-(2-amino-6-((R)-1-(3′-(2-carboxyethyl)-4-(3-methyl-1H-pyrazol-1-yl)-[1,1′-biphenyl]-3-yl)-2,2,2-trifluoroethoxy)pyrimidin-4-yl)-2,8-diazaspiro[4.5] decane-3-carboxylic acid]
2 | > 7.30 | – | Cc1ccn(-c2ccc(-c3ccc(CO)c(C)c3)cc2[C@@H](Oc2cc(N3CCC4(CC3)CN[C@H](C(=O)O)C4)nc(N)n2)C(F)(F)F)n1 [Example 19l, (S)-8-(2-amino-6-((R)-2,2,2-trifluoro-1-(4′-(hydroxymethyl)-3′-methyl-4-(3-methyl-1H-pyrazol-1-yl)-[1,1′-biphenyl]-3-yl)ethoxy)pyrimidin-4-yl)-2,8-diazaspiro[4.5]decane-3-carboxylic acid]
3 | > 7.30 | – | Cc1ccc(-c2ccc([C@@H](Oc3cc(N4CCC5(CC4)CN[C@H](C(=O)O)C5)nc(N)n3)C(F)(F)F)c(-c3ccccc3)c2)cc1C [Example 54f, (S)-8-(2-amino-6-((R)-1-(3,4-dimethyl-[1,1′:3′,1″-terphenyl]-4′-yl)-2,2,2-trifluoroethoxy)pyrimidin-4-yl)-2,8-diazaspiro[4.5]decane-3-carboxylic acid]
4 | > 7.30 | – | CCCc1ccc(-n2ccc(C)n2)c([C@@H](Oc2cc(N3CCC4(CC3)CN[C@H](C(=O)O)C4)nc(N)n2)C(F)(F)F)c1 [Example 22b]
5 | 5.00 to 5.52 | – | Nc1nc(NCc2ccc(-c3ccccc3)cc2)nc(N2CCC3(CC2)CNC(C(=O)O)C3)n1 (centres unmarked) [Example 39b, 8-(4-(([1,1′-biphenyl]-4-ylmethyl)amino)-6-amino-1,3,5-triazin-2-yl)-2,8-diazaspiro[4.5]decane-3-carboxylic acid]
6 | 6.52 to 7.30 | – | NC(=O)c1ccc(-c2ccc([C@@H](Oc3cc(N4CCC5(CC4)CN[C@H](C(=O)O)C5)nc(N)n3)C(F)(F)F)cc2)cc1 [Example 55df, (S)-8-(2-amino-6-((R)-1-(4′-carbamoyl-[1,1′-biphenyl]-4-yl)-2,2,2-trifluoroethoxy)pyrimidin-4-yl)-2,8-diazaspiro[4.5]decane-3-carboxylic acid]
7 | > 7.30 | – | Cc1ccn(-c2ccc(-c3ccc(Cl)c(Cl)c3)cc2[C@@H](Oc2cc(N3CCC4(CC3)CN[C@H](C(=O)O)C4)nc(N)n2)C(F)(F)F)n1 [Example 19p, (S)-8-(2-amino-6-((R)-1-(3′,4′-dichloro-4-(3-methyl-1H-pyrazol-1-yl)-[1,1′-biphenyl]-3-yl)-2,2,2-trifluoroethoxy)pyrimidin-4-yl)-2,8-diazaspiro[4.5] decane-3-carboxylic acid]
8 | – | 5.52 to 6.52 | Nc1nc(O[C@H](c2ccc(Cl)cc2-c2ccc(S(N)(=O)=O)cc2)C(F)(F)F)cc(N2CCC3(CC2)CN[C@H](C(=O)O)C3)n1 [Example 34ae, (S)-8-(2-amino-6-((R)-1-(5-chloro-4′-sulfamoyl-[1,1′-biphenyl]-2-yl)-2,2,2-trifluoroethoxy)pyrimidin-4-yl)-2,8-diazaspiro[4.5]decane-3-carboxylic acid]
9 | 5.00 to 5.52 | – | Nc1nc(O[C@H](c2ccc(-c3c(F)cccc3F)cc2)C(F)(F)F)cc(N2CCC3(CC2)CN[C@H](C(=O)O)C3)n1 [Example 55cf, (S)-8-(2-amino-6-((R)-1-(2′,6′-difluoro-[1,1′-biphenyl]-4-yl)-2,2,2-trifluoroethoxy)pyrimidin-4-yl)-2,8-diazaspiro[4.5]decane-3-carboxylic acid]
10 | > 7.30 | – | COc1ccc(-c2ccc([C@@H](Oc3cc(N4CCC5(CC4)CN[C@H](C(=O)O)C5)nc(N)n3)C(F)(F)F)c(-n3ccc(C)n3)c2)cc1F [Example 1ci, (S)-8-(2-amino-6-((R)-2,2,2-trifluoro-1-(3′-fluoro-4′-methoxy-3-(3-methyl-1H-pyrazol-1-yl)-[1,1′-biphenyl]-4-yl)ethoxy)pyrimidin-4-yl)-2,8-diazaspiro[4.5]decane-3-carboxylic acid]
11 | 6.52 to 7.30 | – | Nc1nc(O[C@H](c2ccc(-c3ccc(Cl)c(Cl)c3)cc2)C(F)(F)F)cc(N2CCC3(CC2)CN[C@H](C(=O)O)C3)n1 [Example 55cl, (S)-8-(2-amino-6-((R)-1-(3′,4′-dichloro-[1,1′-biphenyl]-4-yl)-2,2,2-trifluoroethoxy)pyrimidin-4-yl)-2,8-diazaspiro[4.5]decane-3-carboxylic acid]
12 | 6.52 to 7.30 | – | Cc1ccn(-c2cc(-c3cc(F)c(F)c(F)c3)ccc2[C@@H](Oc2cc(N3CCC4(CC3)CN[C@H](C(=O)O)C4)nc(N)n2)C(F)(F)F)n1 [Example 1bo, (S)-8-(2-amino-6-((R)-2,2,2-trifluoro-1-(3′,4′,5′-trifluoro-3-(3-methyl-1H-pyrazol-1-yl)-[1,1′-biphenyl]-4-yl)ethoxy)pyrimidin-4-yl)-2,8-diazaspiro[4.5]decane-3-carboxylic acid]
13 | > 7.30 | – | Cc1ccn(-c2ccc(-c3ccc(CO)cc3)cc2[C@@H](Oc2cc(N3CCC4(CC3)CN[C@H](C(=O)O)C4)nc(N)n2)C(F)(F)F)n1 [Example 19r, (S)-8-(2-amino-6-((R)-2,2,2-trifluoro-1-(4′-(hydroxymethyl)-4-(3-methyl-1H-pyrazol-1-yl)-[1,1′-biphenyl]-3-yl)ethoxy)pyrimidin-4-yl)-2,8-diazaspiro[4.5]decane-3-carboxylic acid]
14 | 6.52 to 7.30 | – | Cc1ccc(-c2cc(Cl)ccc2[C@@H](Oc2cc(N3CCC4(CC3)CN[C@H](C(=O)O)C4)nc(N)n2)C(F)(F)F)cc1 [Example 34bx, (S)-8-(2-amino-6-((R)-1-(5-chloro-4′-methyl-[1,1′-biphenyl]-2-yl)-2,2,2-trifluoroethoxy)pyrimidin-4-yl)-2,8-diazaspiro[4.5]decane-3-carboxylic acid]
15 | 6.52 to 7.30 | – | Cn1cccc(-c2cc(Cl)ccc2[C@@H](Oc2cc(N3CCC4(CC3)CN[C@H](C(=O)O)C4)nc(N)n2)C(F)(F)F)c1=O [Example 34cj, (S)-8-(2-amino-6-((R)-1-(4-chloro-2-(1-methyl-2-oxo-1,2-dihydropyridin-3-yl)phenyl)-2,2,2-trifluoroethoxy)pyrimidin-4-yl)-2,8-diazaspiro[4.5]decane-3-carboxylic acid]
16 | – | > 7.30 | Cc1nn(C)c2cc(-c3ccc([C@@H](Oc4cc(N5CCC6(CC5)CN[C@H](C(=O)O)C6)nc(N)n4)C(F)(F)F)cc3)ccc12 [Example 55ba, (S)-8-(2-amino-6-((R)-1-(4-(1,3-dimethyl-1H-indazol-6-yl)phenyl)-2,2,2-trifluoroethoxy)pyrimidin-4-yl)-2,8-diazaspiro[4.5]decane-3-carboxylic acid]
17 | 6.52 to 7.30 | – | CCCCS(=O)(=O)c1cccc(-c2cc(Cl)ccc2[C@@H](Oc2cc(N3CCC4(CC3)CN[C@H](C(=O)O)C4)nc(N)n2)C(F)(F)F)c1 [Example 34l, (S)-8-(2-amino-6-((R)-1-(3′-(butylsulfonyl)-5-chloro-[1,1′-biphenyl]-2-yl)-2,2,2-trifluoroethoxy)pyrimidin-4-yl)-2,8-diazaspiro[4.5]decane-3-carboxylic acid]
18 | > 7.30 | – | Cc1ccn(-c2ccc(-c3cccc(/C=C/C(=O)O)c3)cc2[C@@H](Oc2cc(N3CCC4(CC3)CN[C@H](C(=O)O)C4)nc(N)n2)C(F)(F)F)n1 [Example 19h, (S)-8-(2-amino-6-((R)-1-(3′-((E)-2-carboxyvinyl)-4-(3-methyl-1H-pyrazol-1-yl)-[1,1′-biphenyl]-3-yl)-2,2,2-trifluoroethoxy)pyrimidin-4-yl)-2,8-diazaspiro[4.5] decane-3-carboxylic acid]
19 | 6.52 to 7.30 | – | CCc1ccc([C@@H](Oc2cc(N3CCC4(CC3)CN[C@H](C(=O)O)C4)nc(N)n2)C(F)(F)F)c(-n2ccc(C)n2)c1 [Example 12a, (S)-8-(2-amino-6-((R)-1-(4-ethyl-2-(3-methyl-H-pyrazol-1-yl)phenyl)-2,2,2-trifluoroethoxy)pyrimidin-4-yl)-2,8-diazaspiro[4.5]decane-3-carboxylic acid]
20 | 6.52 to 7.30 | – | CCN(CC)C(=O)c1ccc(-c2ccc([C@@H](Oc3cc(N4CCC5(CC4)CN[C@H](C(=O)O)C5)nc(N)n3)C(F)(F)F)cc2)cc1 [Example 55de, (S)-8-(2-amino-6-((R)-1-(4′-(diethylcarbamoyl)-[1,1′-biphenyl]-4-yl)-2,2,2-trifluoroethoxy)pyrimidin-4-yl)-2,8-diazaspiro[4.5]decane-3-carboxylic acid]
21 | 6.52 to 7.30 | – | Cc1ncc(-c2cc(Cl)ccc2[C@@H](Oc2cc(N3CCC4(CC3)CN[C@H](C(=O)O)C4)nc(N)n2)C(F)(F)F)s1 [Example 34ci, (S)-8-(2-amino-6-((R)-1-(4-chloro-2-(2-methylthiazol-5-yl)phenyl)-2,2,2-trifluoroethoxy)pyrimidin-4-yl)-2,8-diazaspiro[4.5]decane-3-carboxylic acid]

Row | Compound | pIC50 [1] | pIC50 [2]
22 | (S)-8-(2-amino-6-((R)-2,2,2-trifluoro-1-(3-(3- methyl-1H-pyrazol-1-yl)-2′,3′,4′,5′-tetrahydro- [1,1′-biphenyl]-4-yl)ethoxy)pyrimidin-4-yl)- 2,8-diazaspiro[4.5]decane-3-carboxylic acid [Example 1v] | > 7.30 | –
23 | Nc1nc(O[C@H](c2ccc(Cl)cc2-c2cc(F)cc(F)c2)C(F)(F)F)cc(N2CCC3(CC2)CN[C@H](C(=O)O)C3)n1 [Example 34au, (S)-8-(2-amino-6-((R)-1-(5-chloro-3′,5′-difluoro-[1,1′-biphenyl]-2-yl)-2,2,2-trifluoroethoxy)pyrimidin-4-yl)-2,8-diazaspiro[4.5]decane-3-carboxylic acid] | – | > 7.30
